Measured values reported in paper PMC7037052, “Predicting the Blood-Brain Barrier Permeability of New Drug-Like Compounds via HPLC with Various Stationary Phases” (Molecules, 2020).

What was measured:
[1] = RP-HPLC retention on Purosphere RP-18e (ODS) column, buffer pH 7.4-acetonitrile; type: physicochemical; settings: for log kw, ODS: extrapolated to buffer pH 7.4 as mobile phase, 25 °C; for s ODS: slope of Soczewiński-Wachtmeister equation, acetonitrile φ 0.3–0.6
Procedure: (§1) Retention parameters reported as the log k values were calculated by the expression:(1) logk=log(tR−t0)/t0 where tR and t0 are the retention times of the solute and a non-retained compound (citric acid), respectively. They were used to calculate the log kw values, i.e., logarithms of retention parameter in the buffer as the mobile phase. For this purpose the Soczewiński-Wachtmeister’s equation was used:log k = log kw − sφ(2) where φ is the volume fraction of organic modifier in the mobile phase; k and kw are retention parameters corresponding to mixed effluent and buffer as the mobile phase, respectively. The slope s is characteristic of a given solute and chromatographic system. Strong linear relationships between log k and φ values were found for all the compounds in the range of effluent composition examined (R^2 > 0.9). The log kw values determined for the ODS (log kw, ODS), IAM (log kw, IAM) and Cholester (log kw, Cholester) columns were intercorrelated and the following linear relationships with a very good statistical quality were obtained:log kw, ODS = 0.691(± 0.094) + 0.982(± 0.044) log kw, IAM(3) SD = 0.257; R^2 = 0.8880; N = 65 log kw, ODS = 0.911(± 0.062) + 0.765(± 0.025) log kw, Cholester(4) SD = 0.192; R^2 = 0.9371; N = 65 log kw, IAM = 0.356(± 0.073) + 0.721(± 0.029) log kw, Cholester(5) SD = 0.224; R^2 = 0.9068; N = 65
(§2) Shimadzu Vp (Shimadzu, Izabelin, Poland) liquid chromatographic system equipped with LC 10AT pump, SPD 10A UV-Vis detector, SCL 10A system controller, CTO-10 AS chromatographic oven and Rheodyne injector valve with a 20 µL loop was applied in HPLC measurements. Three stationary phases were employed: • Purosphere RP-18e (ODS), 125 × 4 mm i.d., 5 µm (Merck); • IAM.PC.DD2 100 × 4.6 mm i.d., 10 µm (Regis Chemicals Company, Morton Grove, IL, USA); • Cosmosil Cholester, 75 × 2 mm i.d., 2.5 µm (Genore, Warsaw, Poland).
(§3) As mobile phases buffer-acetonitrile mixtures were used. The buffer was prepared from 0.01 mol L^−1 solutions of Na2HPO4 and citric acid and the pH 7.4 value was fixed before mixing with organic modifier. With the ODS column acetonitrile concentration in the effluent, expressed as a volume fraction (φ, v/v), was changed in the range 0.3–0.6, with the constant step of 0.1. The flow rate was 1 mL min^−1. With the IAM column acetonitrile concentration was changed in the range 0.2–0.5, also with the constant step of 0.1 and the flow rate was 1.3 mL min^−1. With the Cosmosil Cholester column acetonitrile concentration was changed in the range 0.4–0.6, with the constant step of 0.05 and the flow rate was 0.4 mL min^−1. Samples of test compounds were dissolved in acetonitrile—c.a. 0.005 mg mL^−1. […] They were detected under UV light at 210 and 254 nm. All measurements were carried out at 25 °C. The dead time values were measured from non-retained compound (citric acid) peaks. All reported log kw values are the average of at least three independent measurements. The extrapolated retention coefficients (logs kw) achieved by HPLC on ODS, IAM and Cholester stationary phases were used for modelling the log BB permeation of 65 drug-like compounds employed as a whole test set (Table 1).

[2] = RP-HPLC retention on IAM.PC.DD2 (immobilized artificial membrane) column, buffer pH 7.4-acetonitrile; type: physicochemical; settings: for log kw, IAM: extrapolated to buffer pH 7.4 as mobile phase, 25 °C; for s IAM: slope of Soczewiński-Wachtmeister equation, acetonitrile φ 0.2–0.5
Procedure: as §1, §2, §3

[3] = RP-HPLC retention on Cosmosil Cholester column, buffer pH 7.4-acetonitrile; type: physicochemical; settings: for log kw, Cholester: extrapolated to buffer pH 7.4 as mobile phase, 25 °C; for s Cholester: slope of Soczewiński-Wachtmeister equation, acetonitrile φ 0.4–0.6
Procedure: as §1, §2, §3

[4] = system: human cancer cells; parameters: method as in doi:10.1016/j.arabjc.2016.12.024, PMID 24126095; settings: cited from earlier work
[5] = system: normal cells; parameters: method as in doi:10.1016/j.arabjc.2016.12.024, PMID 24126095; settings: cited from earlier work

SMILES	log kw, ODS [1]	s ODS [1]	log kw, IAM [2]	s IAM [2]	log kw, Cholester [3]	s Cholester [3]	antiproliferative activities in human cancer cells [4]	toxic effects for normal cells [5]
O=c1c(-c2ccco2)nnc2n1CCN2c1c(Cl)cccc1Cl [Compound 28]	2.53	4.45	1.70	3.90	2.05	3.66	significant antiproliferative activities	less toxic effects
O=c1c(-c2ccco2)nnc2n1CCN2c1ccccc1Cl [Compound 24]	2.25	4.22	1.27	3.25	1.34	2.95	significant antiproliferative activities	less toxic effects
CCOC(=O)Cc1nnc2n(c1=O)CCN2c1cccc(Cl)c1 [Compound 15]	2.85	4.90	2.05	4.45	2.41	4.15	significant antiproliferative activities	less toxic effects
CCc1nnc2n(c1=O)CCN2c1cccc(Cl)c1 [Compound 4]	1.33	3.15	0.84	2.60	0.62	1.82	significant antiproliferative activities	less toxic effects
CCOC(=O)Cc1nnc2n(c1=O)CCN2c1ccc(C)cc1 [Compound 13]	2.37	4.36	1.70	3.85	1.92	3.58	–	–
O=c1c(-c2ccccc2)nnc2n1CCN2c1ccccc1 [Compound 29]	2.49	4.51	1.91	4.22	2.34	4.02	–	–
COC(=O)Cc1nnc2n(c1=O)CCN2c1ccccc1 [Compound 7]	1.28	3.09	0.81	2.38	0.58	1.92	–	–
CCOC(=O)Cc1nnc2n(c1=O)CCN2c1ccccc1 [Compound 12]	1.75	3.61	1.21	3.11	1.11	2.55	–	–
Cc1cccc(N2CCn3c2nnc(-c2ccccc2)c3=O)c1 [Compound 31]	2.93	5.02	2.26	4.68	2.77	4.42	–	–
CCc1nnc2n(c1=O)CCN2c1ccccc1Cl [Compound 3]	1.22	3.02	0.80	2.51	0.46	1.70	–	–
COc1ccc(N2CCn3c2nnc(-c2ccco2)c3=O)cc1 [Compound 23]	1.91	3.82	1.19	3.13	1.53	3.05	–	–
CCOc1ccc(N2CCn3c2nnc(-c2ccccc2)c3=O)cc1 [Compound 35]	3.09	5.33	2.14	4.48	2.80	4.61	–	–
Cc1cccc(N2CCn3c2nnc(-c2ccccc2)c3=O)c1C [Compound 36]	2.74	4.85	1.85	4.05	2.34	3.60	–	–
Cc1ccccc1N1CCn2c1nnc(-c1ccccc1)c2=O [Compound 30]	2.12	4.01	1.53	3.52	1.88	3.50	–	–
Cc1ccc(N2CCn3c2nnc(-c2ccccc2)c3=O)cc1 [Compound 32]	2.93	5.06	2.22	4.81	2.86	4.65	–	–

More lines, main results first:

log kw, ODS [1]	s ODS [1]	log kw, IAM [2]	s IAM [2]	log kw, Cholester [3]	s Cholester [3]	SMILES	antiproliferative activities in human cancer cells [4]	toxic effects for normal cells [5]
3.41	5.20	2.57	5.32	3.19	5.30	O=c1c(-c2ccccc2)nnc2n1CCN2c1ccc(Cl)cc1 [Compound 39]	significant antiproliferative activities	less toxic effects
2.46	4.44	1.81	4.08	1.94	3.66	O=c1c(CCc2ccccc2)nnc2n1CCN2c1ccccc1Cl [Compound 63]	significant antiproliferative activities	less toxic effects
2.90	5.02	3.26	6.45	2.23	3.75	O=c1c(Cc2ccccc2)nnc2n1CCN2c1ccccc1 [Compound 41]	–	–
3.61	5.85	3.15	6.01	3.67	5.75	O=c1c(Cc2cccc(Cl)c2)nnc2n1CCN2c1ccc(Cl)cc1 [Compound 59]	–	–
3.23	5.44	2.41	5.01	2.84	4.70	Cc1ccc(N2CCn3c2nnc(CCc2ccccc2)c3=O)cc1 [Compound 62]	–	–
3.12	5.11	2.65	5.21	3.24	4.90	Cc1ccc(N2CCn3c2nnc(Cc2ccccc2Cl)c3=O)cc1 [Compound 48]	–	–
3.55	5.65	3.22	6.32	3.74	5.62	O=c1c(Cc2ccccc2Cl)nnc2n1CCN2c1ccc(Cl)cc1 [Compound 58]	–	–
2.43	4.60	1.73	3.84	1.96	3.65	O=c1c(-c2ccccc2)nnc2n1CCN2c1ccccc1Cl [Compound 37]	–	–
3.32	5.66	2.72	5.44	3.36	5.35	CCOc1ccc(N2CCn3c2nnc(Cc2ccc(Cl)cc2)c3=O)cc1 [Compound 55]	–	–
3.04	5.30	2.51	5.22	3.15	5.05	Cc1ccc(Cc2nnc3n(c2=O)CCN3c2ccc(C)cc2)cc1 [Compound 46]	–	–
